Measurements reported in patent US9926354B2, “Amyloid precursor protein (APP) based Ã#-secretase inhibitor peptides, and methods of use” (UNIVERSITY OF SOUTH FLORIDA, priority 2014, dated 2018).
No end group written: not given here.

Tests used:
γ-secretase = conditions: Phase 3; cited from earlier work
BACE1 [1] = target: T1, BACE1 (Homo sapiens, UniProt P56817); design: purchased Pan Vera Co., Madison, Wis., USA; conditions: phase II clinical trial suspended June 2013; cited from earlier work
BACE1 [2] = target: T1, BACE1; test: BACE1 activity assay (FRET, cell-free); assay type: biochemical; design: purchased Pan Vera Co., Madison, Wis., USA
Protocol: BACE1 Activity Assay—The BACE1 inhibiting activity of APP-based BACE1 site binding peptides were determined using a fluorescence resonance energy transfer (FRET) assay (Pan Vera Co., Madison, Wis., USA), which employs a recombinant baculovirus-expressed BACE1 and a specific substrate (Rh-[…]-quencher) that is based on the APPswe mutation. This specific peptide substrate becomes highly fluorescent upon enzymatic cleavage. A mixture of 10 μL of BACE1 (1.0 U/mL in 50 mM Tris, pH7.5, 10% glycerol), 10 μL of FRET-substrate, and 10 μL of the various APP-based BACE1 site binding peptides (final concentration 20 μM) were incubated for 90 minutes in the dark at room temperature. Then, 10 μL of BACE1 stop buffer (2.5 M sodium acetate) was added to the mixture. Fluorescence was read using a fluorometer, with excitation at 545 nm and emission at 585 nm.
As a required enzyme for the generation of neurotoxic Aβ from APP, BACE1 is well established as an important mediator of AD β-amyloid pathology. As such, it has become an important target for new disease modifying therapeutics. However, since BACE1 also has important physiological roles, abolishment of the enzyme or its activity may lead to deleterious side effects as evidenced by numerous failed clinical trials discussed previously. […] Since previous studies have established a close relationship between α-helix structure and peptide-protein (or protein-protein) interactions (Azzarito, 2013; Rao et al., 2013), several APP based peptides were synthesized that might serve as a preferable substrate for BACE1. Importantly, these peptides were free of the Aβ-containing segment and, thus, cannot be amyloidogenic. In theory, these could be used to “hijack” the BACE1 processing of endogenous APP and lead to a decrease in cerebral Aβ. These BACE1 substrates and controls were incubated with recombinant BACE1 and percent of inhibition of the enzyme was calculated. […] These findings indicate that the α-helical TAT fusion domain may help to promote selective APPsweBBP proteolysis by BACE1, yielding substrate competition against human wild-type APP.

[3] = assay type: in vivo, mouse; conditions: biotin-labeled, 100 nM/kg i.p. daily for 5 days, 4 hours after last injection, 5XFAD mice
Protocol: In order to determine the BBB permeability of TAT-APPsweBBP, biotin-labeled TAT-APPsweBBP or APPsweBBP (100 nM/kg in 100 μl physiological saline) was intraperitoneally (i.p.) administered daily to 5XFAD mice at 2 months of age for 5 days (n=5, female). The mice were euthanized 4 hours after the last injection and then brain tissues were removed, sectioned and stained with anti-BACE1 and anti-biotin antibodies. Alexa Fluor® 594 donkey anti-rabbit IgG was used to detect the biotin signal and Alexa Fluor® 488 goat anti-mouse IgG was used to detect the BACE1 signal. All images were taken with an Olympus Fluoview FV1000 laser scanning confocal microscope. […] No noticeable differences in biotin distribution were observed between 5XFAD and WT control mice following either biotin-labeled TAT-APPsweBBP or APPsweBBP injection (data not shown).
The hypothesis that TAT-APPsweBBP would more effectively penetrate the BBB compared with APPsweBBP alone was initially tested. 5XFAD mice at 2 months of age (n=5, female) were treated with biotin-labeled TAT-APPsweBBP or APPsweBBP (100 nM/kg, i.p.) daily for 5 days and then euthanized 4 hours after the last injection. Brain tissues were removed, sectioned, and stained with anti-BACE1 and anti-biotin antibodies. […] This highlights the importance of the membrane fusion fragment of the HIV-1 Tat protein (TAT) for cerebral delivery of APPsweBBP.

5XFAD mice = test: WB of BACE1, ADAM10, ADAM17, Akt, phospho-Akt and MBP in brain homogenates of 5XFAD mice; assay type: in vivo, mouse; conditions: vs TAT and PBS
Protocol: 5XFAD Mice—Transgenic AD mice [5XFAD; B6SJL-Tg(APPSwF1Lon,PSEN1*M146L*L286V) 6799Vas/Mmjax] at 2.5 months of age were obtained from the Jackson Laboratory (Bar Harbor, Me., USA) and housed and maintained in the Animal Facility of College of Medicine at University of South Florida. The mice at 3.5 months of age were treated with TAT-APPsweBBP, TAT peptide (100 nM/kg in 100 μl PBS) or PBS (100 μl) intraperitioneally (i.p.) daily for eight consecutive weeks. The mice were subjected to behavioral testing after 8 week-treatment and euthanized for immunohistochemical, ELISA and WB analysis after completing behavioral tests. All experiments involving mice were in compliance with the U.S. Department of Health and Human Services Guide for the Care and Use of Laboratory Animals and in accordance with the guidelines of the USF Institutional Animal Care and Use Committee.
Western Blotting (WB) and Analysis—WB analysis was performed as previously described (Modi et al., 2013; Tung et al., 2002). Briefly, the proteins from the various cell-free, cell and brain lysates or homogenates were electrophoretically separated using 10% bicine/tris gel (8 M urea) for proteins less than 5 kD or 10% tricine/tris gels for larger proteins. […]
In addition to cognitive testing, neuronal APP proteolysis was also evaluated by ELISA and WB. […]

T1 sequence (P56817 46-501): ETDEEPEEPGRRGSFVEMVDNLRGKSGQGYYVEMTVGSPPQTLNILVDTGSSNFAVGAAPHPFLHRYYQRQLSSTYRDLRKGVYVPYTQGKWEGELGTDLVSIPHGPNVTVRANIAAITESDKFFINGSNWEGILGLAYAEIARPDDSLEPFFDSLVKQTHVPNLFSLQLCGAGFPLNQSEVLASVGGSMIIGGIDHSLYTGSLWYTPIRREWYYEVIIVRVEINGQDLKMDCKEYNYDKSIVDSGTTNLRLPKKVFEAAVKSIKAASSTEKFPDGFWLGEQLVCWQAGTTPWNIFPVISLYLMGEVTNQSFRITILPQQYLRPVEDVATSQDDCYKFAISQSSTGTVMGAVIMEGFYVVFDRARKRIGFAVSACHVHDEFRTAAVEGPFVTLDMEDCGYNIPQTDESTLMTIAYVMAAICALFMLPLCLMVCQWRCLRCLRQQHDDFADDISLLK

CC(C)[C@H](O)C(=O)N[C@@H](C)C(=O)N[C@@H]1C(=O)N(C)CCc2ccccc21 [semagacestat]
activities of daily living and cognition in treated patients (γ-secretase): worsened

NC1=N[C@@]2(c3cc(NC(=O)c4ccc(F)cn4)ccc3F)COC[C@H]2CS1 [LY2886721]
reason for trial suspension (BACE1 [1]): possible liver toxicity

YGRKKRRQRRREISEVNLDAEFR [APPsweBBP/TTD2]
% of inhibition (mean ± SD) of BACE1 (BACE1 [2]; peptide final concentration 20 μM, 90 minutes, room temperature, listed as TAT-APPswe^bBBP, 20 µM): 93.23 ± 2.73%
inhibition at 20 µM (BACE1 [2]; read-out: % of inhibition (mean ± SD) of BACE1, peptide final concentration 20 μM, 90 minutes, room temperature): > 90%
BBB penetration [3]: highly penetrated the BBB
total Akt, phosphorylated Akt and MBP expression levels in brain homogenates (5XFAD mice): did not differ
